# Data as given in paper PMC9297976 (Journal of Applied Toxicology, 2021).
# Assays:
# medaka Esr1 (mEsr1) [1] = target: T1, medaka Esr1 (mEsr1) (Oryzias latipes, UniProt P50241); assay: Medaka Esr1 reporter gene assay, antagonist assay; format: cell-based, Japanese medaka (Oryzias latipes); settings: E2 spiked at 1.0 nM (B); MAC = 1.0 × 10^−5 M
# T1 sequence (P50241 1-620): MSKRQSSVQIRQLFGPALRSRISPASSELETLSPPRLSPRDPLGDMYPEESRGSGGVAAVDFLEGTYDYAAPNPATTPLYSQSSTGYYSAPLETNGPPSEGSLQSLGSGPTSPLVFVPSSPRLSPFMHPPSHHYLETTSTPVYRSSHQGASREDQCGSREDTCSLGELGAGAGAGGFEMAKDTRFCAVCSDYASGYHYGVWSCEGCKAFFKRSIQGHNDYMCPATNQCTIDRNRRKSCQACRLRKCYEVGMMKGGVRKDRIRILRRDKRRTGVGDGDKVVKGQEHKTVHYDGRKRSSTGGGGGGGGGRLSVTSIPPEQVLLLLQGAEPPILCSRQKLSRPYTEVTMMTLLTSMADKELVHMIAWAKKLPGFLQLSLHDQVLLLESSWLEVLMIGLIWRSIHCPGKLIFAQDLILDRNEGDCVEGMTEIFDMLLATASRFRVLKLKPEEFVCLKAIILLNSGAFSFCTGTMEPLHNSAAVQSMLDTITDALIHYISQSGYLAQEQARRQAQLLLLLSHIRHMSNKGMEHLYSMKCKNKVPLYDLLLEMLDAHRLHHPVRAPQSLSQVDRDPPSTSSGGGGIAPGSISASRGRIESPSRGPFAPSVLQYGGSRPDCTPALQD
# [2] = tested on: Japanese medaka (Oryzias latipes); assay: Fish Short‐Term Reproduction Assay; format: in vivo; settings: for GSI Female / GSI Male / HSI Female / HSI Male / Length Female / Length Male / Weight Female / Weight Male: completion of exposure
# medaka ARβ (mArβ) [3] = target: T2, medaka ARβ (mArβ) (Oryzias latipes, UniProt D1MV73); assay: Medaka ARβ reporter gene assay, antagonist assay; format: cell-based, Japanese medaka (Oryzias latipes); settings: 11‐KT spiked at 50 nM (D); MAC = 1.0 × 10^−5 M
# T2 sequence (D1MV73 1-744): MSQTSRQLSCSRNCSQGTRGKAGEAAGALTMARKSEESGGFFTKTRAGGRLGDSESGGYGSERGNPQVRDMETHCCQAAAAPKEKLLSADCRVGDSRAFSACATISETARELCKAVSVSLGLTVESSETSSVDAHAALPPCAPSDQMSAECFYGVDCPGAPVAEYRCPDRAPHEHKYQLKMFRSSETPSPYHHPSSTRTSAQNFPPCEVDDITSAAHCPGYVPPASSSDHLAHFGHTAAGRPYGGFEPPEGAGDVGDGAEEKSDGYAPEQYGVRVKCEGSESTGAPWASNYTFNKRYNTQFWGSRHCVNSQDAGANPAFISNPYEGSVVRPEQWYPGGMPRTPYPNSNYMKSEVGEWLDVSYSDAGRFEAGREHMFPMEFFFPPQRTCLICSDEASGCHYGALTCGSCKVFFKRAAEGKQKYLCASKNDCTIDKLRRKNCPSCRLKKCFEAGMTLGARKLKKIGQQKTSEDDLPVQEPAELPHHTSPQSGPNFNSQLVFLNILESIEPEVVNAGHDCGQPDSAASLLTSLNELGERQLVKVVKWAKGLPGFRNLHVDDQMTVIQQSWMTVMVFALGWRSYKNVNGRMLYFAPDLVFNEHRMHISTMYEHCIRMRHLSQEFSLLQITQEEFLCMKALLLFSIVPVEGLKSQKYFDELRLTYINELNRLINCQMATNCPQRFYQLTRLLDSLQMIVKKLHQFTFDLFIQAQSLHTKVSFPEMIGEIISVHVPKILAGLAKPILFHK
# medaka Esr1 (mEsr1) [4] = target: T1, medaka Esr1 (mEsr1); assay: cell-based; set-up: species or system Japanese medaka (Oryzias latipes)
# medaka ARβ (mArβ) [5] = target: T2, medaka ARβ (mArβ); assay: Medaka ARβ reporter gene assay, agonist assay; format: cell-based, Japanese medaka (Oryzias latipes); settings: MAC = 1.0 × 10^−5 M
# [6] = 177 μg/L measured, 21 d, sig. ↑ vs control
# [7] = 353 μg/L measured, 21 d, sig. ↑ vs control
# [8] = 353 μg/L measured, 21 d, sig. ↓ vs control
# [9] = measured concentration 54.4 μg/L
# [10] = measured concentration 104 μg/L
# [11] = measured concentration 177 μg/L
# [12] = measured concentration 353 μg/L
structure (smiles),measurement,setting,value
"Oc1cc(Cl)ccc1Oc1ccc(Cl)cc1Cl [TCS, Triclosan]",Antagonistic activity,medaka Esr1 (mEsr1) [1],NE (MAC = 1.0 × 10^−5 M)^(B)
same,Fertility rate,"[2]; 54.4 μg/L measured, 21 d",96 ± 3.3%
same,"Hepatic VTG, female","[2]; 54.4 μg/L measured, 21 d",616 ± 220 ng/mg‐liver
same,"Hepatic VTG, male","[2]; 54.4 μg/L measured, 21 d",3.3 ± 4.7 ng/mg‐liver
same,Mortality,"[2]; 54.4 μg/L measured, 21 d",4.2%
same,"Mortality, number of dead fish","[2]; 54.4 μg/L measured, 21 d",1
same,Number of fertilized eggs (per female per day),"[2]; 54.4 μg/L measured, 21 d",25 ± 4.0
same,Number of total eggs (per female per day),"[2]; 54.4 μg/L measured, 21 d",26 ± 3.8
same,SSC female (joint plates with papillary processes),"[2]; 54.4 μg/L measured, 21 d",0 ± 0
same,Fertility rate,"[2]; 104 μg/L measured, 21 d",98 ± 1.4%
same,"Hepatic VTG, female","[2]; 104 μg/L measured, 21 d",698 ± 32 ng/mg‐liver
same,"Hepatic VTG, male","[2]; 104 μg/L measured, 21 d",4.5 ± 2.7 ng/mg‐liver
same,Mortality,"[2]; 104 μg/L measured, 21 d",13%
same,"Mortality, number of dead fish","[2]; 104 μg/L measured, 21 d",3
same,Number of fertilized eggs (per female per day),"[2]; 104 μg/L measured, 21 d",24 ± 1.0
same,Number of total eggs (per female per day),"[2]; 104 μg/L measured, 21 d",24 ± 1.1
same,SSC female (joint plates with papillary processes),"[2]; 104 μg/L measured, 21 d",0 ± 0
same,Fertility rate,"[2]; 177 μg/L measured, 21 d",97 ± 1.5%
same,Number of fertilized eggs (per female per day),"[2]; 177 μg/L measured, 21 d",18 ± 7.0
same,Number of total eggs (per female per day),"[2]; 177 μg/L measured, 21 d",19 ± 7.2
same,SSC female (joint plates with papillary processes),"[2]; 177 μg/L measured, 21 d",0 ± 0
same,"Hepatic VTG, female",[2]; [6],955 ± 73 ng/mg‐liver
same,Mortality,[2]; [6],29%
same,"Mortality, number of dead fish",[2]; [6],7
same,"Hepatic VTG, male","[2]; 177 μg/L measured, 21 d, sig. ↓ vs control",0.9 ± 0.1 ng/mg‐liver
same,Fertility rate,"[2]; 353 μg/L measured, 21 d",98 ± 0.8%
same,SSC female (joint plates with papillary processes),"[2]; 353 μg/L measured, 21 d",0 ± 0
same,"Hepatic VTG, female",[2]; [7],"1,111 ± 265 ng/mg‐liver"
same,Mortality,[2]; [7],50%
same,"Mortality, number of dead fish",[2]; [7],12
same,"Hepatic VTG, male",[2]; [8],1.0 ± 0.3 ng/mg‐liver
same,Number of fertilized eggs (per female per day),[2]; [8],10 ± 1.9
same,Number of total eggs (per female per day),[2]; [8],10 ± 2.0
same,Change of hepatic VTG levels in females (in words),[2]; 21 d,significant increase
same,"Fecundity, number of total eggs (in words)",[2]; 21 d,statistically significant decrease
same,minimal effective concentration,"[2]; Oryzias latipes, 504 h, read-out: LOECmVTG",> 0.353 µg/mL
same,Fertility rate (in words),[2]; chemicals with significant decrease of number of total eggs,no significant effect
same,LOECTOX,[2]; lowest observed effect concentration on mortality,177 µg/L
same,GSI Female,[2]; [9],7.3 ± 0.4%
same,GSI Male,[2]; [9],1.00 ± 0.13%
same,HSI Female,[2]; [9],3.8 ± 0.40%
same,HSI Male,[2]; [9],1.6 ± 0.23%
same,Length Female,[2]; [9],33.5 ± 0.7 mm
same,Length Male,[2]; [9],33.6 ± 0.7 mm
same,Weight Female,[2]; [9],449 ± 11 mg
same,Weight Male,[2]; [9],379 ± 28 mg
same,GSI Female,[2]; [10],7.5 ± 0.6%
same,GSI Male,[2]; [10],1.00 ± 0.23%
same,HSI Female,[2]; [10],3.7 ± 0.79%
same,HSI Male,[2]; [10],1.5 ± 0.09%
same,Length Female,[2]; [10],32.8 ± 1.1 mm
same,Length Male,[2]; [10],34.8 ± 0.7 mm
same,Weight Female,[2]; [10],409 ± 20 mg
same,Weight Male,[2]; [10],417 ± 13 mg
same,GSI Female,[2]; [11],7.9 ± 1.4%
same,GSI Male,[2]; [11],0.90 ± 0.17%
same,HSI Female,[2]; [11],3.8 ± 0.30%
same,HSI Male,[2]; [11],1.4 ± 0.41%
same,Length Female,[2]; [11],32.4 ± 1.3 mm
same,Length Male,[2]; [11],33.3 ± 0.9 mm
same,Weight Female,[2]; [11],425 ± 45 mg
same,Weight Male,[2]; [11],380 ± 66 mg
same,GSI Female,[2]; [12],8.7 ± 1.1%
same,GSI Male,[2]; [12],1.20 ± 0.73%
same,HSI Female,[2]; [12],4.5 ± 0.23%
same,HSI Male,[2]; [12],2.4 ± 1.08%
same,Length Female,[2]; [12],33.2 ± 0.9 mm
same,Length Male,[2]; [12],33.3 ± 1.5 mm
same,Weight Female,[2]; [12],437 ± 30 mg
same,Weight Male,[2]; [12],361 ± 57 mg
same,Antagonistic activity,medaka ARβ (mArβ) [3],NE (MAC = 1.0 × 10^−5 M)^(D)
same,Agonistic activity PC10,medaka Esr1 (mEsr1) [4],PC10 = 2.0 × 10^−6 M
same,In vitro positive: Esr,medaka Esr1 (mEsr1) [4]; mode of action in which EC50 or PC10 was obtained in RGA,Esr
same,Agonistic activity,medaka ARβ (mArβ) [5],NE (MAC = 1.0 × 10^−5 M)
